# Source: paper PMC5769417, “Single- and Multiple-Dose Trials to Determine the Pharmacokinetics, Safety, Tolerability, and Sex Effect of Oral Ginsenoside Compound K in Healthy Chinese Volunteers” (Frontiers in Pharmacology, 2018)
# Where two headings read alike, the source gives them in different places.
# Key:
# [1] = Single-dose trial, plasma pharmacokinetics; assay type: in vivo, human; conditions: for Tmax / half-life / AUC(0-inf) / AUC(0-t) / MRT inf / MRT last / Cmax: both sexes, human, plasma; for Cmax: read-out: Cmax
# Description: Single-dose pharmacokinetics: The single-dose trial was performed first. […] Drinking before and after medication was prohibited for 2 h, but the amount and time of drinking were not strictly controlled at other times. All subjects had standard lunch and dinner (unified light diet) after medication 4 and 10 h. Single-dose pharmacokinetics: […] We preserved 8 ml specimens into 10 ml centrifuge tubes and stored at −70°C for PK assessment. All samples were preserved at −70°C and analyzed with a LC-MS/MS (API 4000 LC-MS/MS, ABI Company, Foster City, CA, USA) at the Institute of Clinical Pharmacology, Central South University (Changsha, China). […] An aqueous solution of a stable internal standard (IS for CK: digoxin, Shijiaoke Biological Technology Co. Ltd., Beijing, China; IS for PPD: coumarin, Sigma-Aldrich, St. Louis, USA) and 1 M phosphate buffer were added to 0.5 ml of thawed sample, and analytical standards and quality control (QC) samples were prepared in the same matrix. All samples were treated with 2 ml of methyl tert-butyl ether (MTBE, CNW technologies GmbH, Duesseldorf, Germany) to precipitate the bulk of plasma proteins. After mechanical shock by mixing for 10 min and a subsequent centrifugation (4,000 rpm, 4°C, 10 min), 1.4 ml of the supernatant was transferred and blow-dried with nitrogen in a water bath at 40°C. Lastly, the residue was dissolved in 100 μl of mobile phase and then was subjected to a mechanical shock by mixing, and centrifuged. The supernatant was subsequently injected into the column for analysis. […] Accuracy and precision of the assay were determined by evaluating the performance of the assay controls. Over the quantification range, the accuracy of the QC samples varied from 85 to 115% and the intra- and inter-assay imprecision was <15%. PK parameters were derived according to noncompartmental analysis and actual elapsed time from dosing by WinNonlin version 6.1 (Pharsight Corporation, Mountain View, CA, USA). […] The area under the curve (AUC) from time zero to the last time point (AUClast) and the AUC extrapolated to infinity (AUCinf) were calculated using the linear trapezoidal rule. The slope (elimination rate constant, K) of the terminal phase of the plasma concentration-time profile was determined, using a weighting factor of 1, by the method of least squares (log-linear regression of at least three data points). The t1/2 was estimated as (ln2)/K. […] The apparent volume of distribution (V/F) was equal to (CL/F)/K. The mean residence time (MRT) was calculated as the area under the first moments curve (AUMC) divided by AUC. The dose-normalized PK parameters e.g., Cmax/D and AUClast/D, were obtained by dividing each PK result by the administered dose. The cumulative excretion rate was calculated as the amount of unchanged drug in the urine over a time interval divided by the dose and was expressed as thousand points (‰).
# beagle dogs = conditions: cited from earlier work
# [2] = single-dose trial, 25 mg oral, fasting
# [3] = single-dose trial, 50 mg oral, fasting
# [4] = single-dose trial, 100 mg oral, fasting
# [5] = single-dose trial, 200 mg oral, fasting
# [6] = single-dose trial, 400 mg oral, fasting
# [7] = single-dose trial, 600 mg oral, fasting
# [8] = single-dose trial, 800 mg oral, fasting
compound,measurement,setting,value
"CC(C)=CCC[C@](C)(OC1O[C@H](CO)[C@@H](O)[C@H](O)[C@H]1O)[C@H]1CC[C@]2(C)[C@@H]1[C@H](O)C[C@@H]1[C@@]3(C)CC[C@H](O)C(C)(C)[C@@H]3CC[C@]12C (stereo partly drawn) [CK, 20-O-beta-D-glucopyranosyl-20(S)-protopanaxadiol]",Tmax,"[1]; oral, both trials, all doses, read-out: range of time to maximum concentration (Tmax)",1.5 to 6 h
same,Tmax,"[1]; oral, medians, both trials, read-out: Tmax in this study",2.5 to 3.8 h
same,half-life,"[1]; oral, single-dose trial, 25–800 mg, read-out: mean t1/2 across the dose groups",13.5 to 26.2 h
same,Tmax,"[1]; oral, single-dose trial, 25–800 mg, read-out: median Tmax across the dose groups",2.5 to 3.3 h
same,Tmax,"[1]; po, 25 mg, single-dose trial, 25 mg oral, fasting, read-out: Tmax, median (range)",3 h
same,Tmax,"[1]; po, 50 mg, single-dose trial, 50 mg oral, fasting, read-out: Tmax, median (range)",3 h
same,Tmax,"[1]; po, 100 mg, single-dose trial, 100 mg oral, fasting, read-out: Tmax, median (range)",3 h
same,Tmax,"[1]; po, 200 mg, single-dose trial, 200 mg oral, fasting, read-out: Tmax, median (range)",3.3 h
same,Tmax,"[1]; po, 400 mg, single-dose trial, 400 mg oral, fasting, read-out: Tmax, median (range)",3 h
same,AUC(0-inf),[1]; [2],1270 ± 276 ng·h/mL
same,AUC(0-t),[1]; [2],1230 ± 267 ng·h/mL
same,MRT inf,[1]; [2],10.9 ± 1.9 h
same,MRT last,[1]; [2],8.9 ± 1.3 h
same,Cmax,[1]; [2],175 ± 35.1 ng/mL
same,half-life,"[1]; single-dose trial, 25 mg oral, fasting, read-out: t1/2 (converted)",13.5 ± 0.6 h
same,AUC(0-inf),[1]; [3],2250 ± 861 ng·h/mL
same,AUC(0-t),[1]; [3],2120 ± 770 ng·h/mL
same,MRT inf,[1]; [3],12.5 ± 2.4 h
same,MRT last,[1]; [3],9.1 ± 0.7 h
same,Cmax,[1]; [3],300 ± 98.5 ng/mL
same,half-life,"[1]; single-dose trial, 50 mg oral, fasting, read-out: t1/2 (converted)",15.9 ± 4.2 h
same,AUC(0-inf),[1]; [4],2820 ± 1440 ng·h/mL
same,AUC(0-t),[1]; [4],2760 ± 1420 ng·h/mL
same,MRT inf,[1]; [4],13.7 ± 1 h
same,MRT last,[1]; [4],11.4 ± 0.9 h
same,Cmax,[1]; [4],351 ± 180 ng/mL
same,half-life,"[1]; single-dose trial, 100 mg oral, fasting, read-out: t1/2 (converted)",22.4 ± 3.3 h
same,AUC(0-inf),[1]; [5],6090 ± 3600 ng·h/mL
same,AUC(0-t),[1]; [5],5960 ± 3520 ng·h/mL
same,MRT inf,[1]; [5],13.8 ± 1.6 h
same,MRT last,[1]; [5],11.5 ± 1.4 h
same,Cmax,[1]; [5],734 ± 408 ng/mL
same,half-life,"[1]; single-dose trial, 200 mg oral, fasting, read-out: t1/2 (converted)",21.6 ± 5.5 h
same,AUC(0-inf),[1]; [6],8240 ± 2050 ng·h/mL
same,AUC(0-t),[1]; [6],8100 ± 2020 ng·h/mL
same,MRT inf,[1]; [6],14 ± 1.5 h
same,MRT last,[1]; [6],11.9 ± 1.1 h
same,Cmax,[1]; [6],1030 ± 295 ng/mL
same,half-life,"[1]; single-dose trial, 400 mg oral, fasting, read-out: t1/2 (converted)",22.3 ± 4 h
same,AUC(0-inf),[1]; [7],9280 ± 4240 ng·h/mL
same,AUC(0-t),[1]; [7],9090 ± 4200 ng·h/mL
same,MRT inf,[1]; [7],15.9 ± 2.8 h
same,MRT last,[1]; [7],12.7 ± 0.9 h
same,Cmax,[1]; [7],1160 ± 466 ng/mL
same,half-life,"[1]; single-dose trial, 600 mg oral, fasting, read-out: t1/2 (converted)",26.2 ± 6.3 h
same,AUC(0-inf),[1]; [8],9200 ± 4180 ng·h/mL
same,AUC(0-t),[1]; [8],8990 ± 4100 ng·h/mL
same,MRT inf,[1]; [8],14.7 ± 2.6 h
same,MRT last,[1]; [8],12 ± 1.8 h
same,Cmax,[1]; [8],1180 ± 445 ng/mL
same,half-life,"[1]; single-dose trial, 800 mg oral, fasting, read-out: t1/2 (converted)",25.7 ± 3 h
same,CL/F,[1]; [2],20.5 ± 4.7 l·h ^−1
same,V/F,[1]; [2],397 ± 86 L
same,CL/F,[1]; [3],25.9 ± 11.2 l·h ^−1
same,V/F,[1]; [3],559 ± 185 L
same,CL/F,[1]; [4],44.5 ± 21.6 l·h ^−1
same,V/F,[1]; [4],1381 ± 546 L
same,CL/F,[1]; [5],47.7 ± 31.2 l·h ^−1
same,V/F,[1]; [5],1287 ± 563 L
same,CL/F,[1]; [6],51.2 ± 12.3 l·h ^−1
same,V/F,[1]; [6],1613 ± 379 L
same,CL/F,[1]; [7],76.1 ± 32.1 l·h ^−1
same,V/F,[1]; [7],3057 ± 2094 L
same,CL/F,[1]; [8],106 ± 50.3 l·h ^−1
same,V/F,[1]; [8],3993 ± 2136 L
same,No observed adverse effect level (NOAEL),beagle dogs,7.5 mg/kg
same,dose at which diarrhea symptom occurred,beagle dogs; long-term toxicity test,75 mg/kg
